Source: US20240018470A1, “METHOD OF MANIPULATING PLURIPOTENCY IN CELLS” (YALE UNIVERSITY, priority 2022, published 2024)

Tests used:
Xenopus embryos [1] = assay: Gastrulation scoring (incomplete blastopore closure) in treated or kcnh6-depleted embryos; format: in vivo, Xenopus tropicalis; conditions: kcnh6 depletion, injected at one-cell stage
Experimental: All injections of Xenopus embryos were performed at the one-cell stage using a fine glass needle and Picospritzer system. A kcnh6 translation blocking (kcnh6 MO, 5′-[…]-3′, SEQ ID NO:1) and a scrambled morpholino oligonucleotide were obtained from Gene Tools LLC and injected at 10 ng to deplete kcnh6 or as a control, respectively. CRISPR sgRNAs for kcnh6 targeted either exon 3 or exon 4 based on the v7.1 gene model of the X. tropicalis genome (CRex3: 5′-[…]-3′, SEQ ID NO:2 and CRex4: 5′-[…]-3′, SEQ ID NO:3). CRISPR sgRNAs for cacna1c (5′-[…]-3′, SEQ ID NO:4) and cacna1g (5′-[…]-3′, SEQ ID NO:5) were designed from the v7.1 model of the Xenopus tropicalis genome. For F0 CRISPR knockdown, embryos were injected with 1.5 ng Cas9 Protein (PNA-Bio) and 400 pg of targeting sgRNA and raised to desired stages. […] Full length human KCNH6 (NM 030779.3; cloned in pCS107), GCaMP6 (subcloned in pCSDest) and mCherry cDNAs (Addgene #34935; in pCS2+), were used to generate capped mRNAs in vitro by first linearizing with appropriate restriction enzymes and then transcribing with the mMessage machine kit (Ambion). mRNAs were injected at 3 pg (human KCNH6), 150 pg (GCaMP6) and 150 pg (mCherry) per embryo. Embryos were raised at 21° C. to allow time for sufficient expression levels at blastula/gastrula stages.
(§1) Normal embryonic medium is 1/9× modified Ringer's (MR) containing 11 mM NaCl, 0.2 mM KCl, 0.2 mM CaCl2), 0.1 mM Mg2Cl and 0.55 mM HEPES. To allow Ergtoxin to penetrate the embryos, the present study manually removed the vitelline envelope of stage 8 embryos and incubated embryos in 1/9×MR containing 50 nM Ergtoxin (Alomone STE-450) until stage 12. Embryos were then transferred back into 1/9×MR lacking Ergtoxin to develop until stage 45 in order to score organ situs. Barium chloride was applied into the medium at 20 mM and embryos were thoroughly rinsed in 1/9×MR after each incubation period for further development in Ba2+-free medium. For extracellular K^+ manipulations, the KCl concentration in 1/9×MR was modified from 0.2 mM (normal) to 20 mM (high) or 0 mM (low). The ionophore valinomycin (ACROS) and L-type VGCC blocker Nifedipine (ACROS) were diluted in DMSO as stock solutions and applied to embryos in 1/9×MR at 2 nM and 10 μM respectively. Treatments performed during gastrulation were applied from stage 8 through stage 12, and embryos were then rinsed thoroughly and returned into 1/9×MR. For rapamycin, the present study created a standard stock solution of 50 mg/ml in DMSO. The stock solution was diluted 1:2500 in the appropriate embryonic media (final 20 μg/ml). Embryos were treated at stage 7 and then fixed at stage 11 for in situ hybridization.
(§2) In experiments where embryos were evaluated for phenotypes and scored (gastrulation, left-right patterning, in situ hybridizations) the present study carried out three to five biological replicates and Fisher's exact test to evaluate statistical significance. The animal cap experiment was performed twice with a total score of four to eight animal caps per experiment. For the calcium transient analyses, data was collected from three to five embryos in each experiment in three independent experiments, and statistical analyses on GCaMP/mCherry fluorescence intensity as well as Ca^2+ transient area were performed using student's t-test. For whole cell electrophysiological recordings, three to five embryos (two cells each) were examined for their membrane potential and statistical significance was tested by student's t-test. Graphs were designed using GraphPad Prism software. Models were created with BioRender.com.

Xenopus embryos [2] = assay: Organ situs (left-right patterning) scoring in stage 45 tadpoles; format: in vivo, Xenopus tropicalis; conditions: kcnh6 depletion, injected at one-cell stage
Experimental: Stage 45 Xenopus embryos were paralyzed with benzocaine or tricaine and scored with a light stereomicroscope. Cardiac looping was determined by position of the outflow tract; D-loop: rightward, L-loop: leftward; A-loop: midline. Normal intestinal looping was scored as counter-clockwise rotation of the gut, while abnormal intestinal looping was scored as completely inverse gut rotation (clockwise) or complete lack of looping (un-looped). While a completely inverted gut rotation is clearly an abnormality of LR patterning, an unlooped gut is less clear so the present study only considered an unlooped gut as abnormal situs when combined with abnormal placement (left-sided or midline) of the gall bladder. To quantify total abnormal organ situs, each tadpole was counted only once, regardless of whether multiple organs were affected.
as §1, §2

Q: Which “inability to complete gastrulation” value (Xenopus embryos [1]) does the source give for “kcnh6 MO: kcnh6 translation blocking morpholino oligonucleotide, 5′-GGTCCTCGAAGTTTAGGATAAACAT-3′, SEQ ID NO:1 (all phosphorodiamidate morpholino (PMO))” here?
A: 31±3%

Q: And the abnormal organ situs (Xenopus embryos [2])?
A: 91±7%
